Assay results published in patent US20110300198A1, “HYDROCOLLOID - ESSENTIAL OIL PATCHES” (priority 2010, published 2011).
Where two headings read alike, the source gives them in different places.

Key:
[1] = Preliminary in-vivo experiment, constituents in blood (GC, WAX column); set-up: species or system rat
[2] = Preliminary in-vivo experiment, constituents in urine (GC); settings: male, Sprague-Dawley, rat, 7.5 % lavender essential oil in almond oil, collected urine sample, 84 h after the simulated massage
Text: Male Sprague-Dawley rats, weighing 300-350 g, were used in the studies (Harlan, Rehovot, Israel). The experimental protocols were approved by the Hebrew University of Jerusalem Committee on the Use and Care of Animals. Rats were maintained under specified-pathogen-free (SPF) conditions and were allowed to acclimate to the environment for at least 7 days before their use in the study. Rats were anesthetized and the fur on their stomach shaved prior to exposure. […] Each rat was housed in an individual cage in order to prevent oral contamination of the essential oil by one rat eating another's patch. Blood samples (0.5 ml) were taken at 0, 12, 24, 36, 48 and 60 h from a nick at the tip of tail to determine contents of essential-oil components. Rats were restrained and the tail was gently massaged to facilitate blood collection. […] Urine samples were similarly analyzed by gas chromatography (GC).
Similar values of camphor (FIG. 17) were detected following application of a lavender oil patch on the back and abdomen. […] In the blood of rats with an abdomen-adhered patch, more linalyl acetate was detected than in the blood of rats with a back patch. […] In a collected urine sample, 0.01265 mg L^−1 linalool and 0.00903 mg L^−1 linalyl acetate were detected. […] In addition, no traces of camphor were detected in the urine (note that the urine analysis was performed 84 h after the simulated massage).

[3] = Extraction of lavender essential oil constituents from the skin after patch application; assay type: in vivo; settings: male, Sprague-Dawley, rat, 7.5 % lavender oil in patch, skin under 7.5% lavender oil patch, removed after 60 h, read-out: Concentration extracted from the skin
Text: Male Sprague-Dawley rats, weighing 300-350 g, were used in the studies (Harlan, Rehovot, Israel). The experimental protocols were approved by the Hebrew University of Jerusalem Committee on the Use and Care of Animals. Rats were maintained under specified-pathogen-free (SPF) conditions and were allowed to acclimate to the environment for at least 7 days before their use in the study. Rats were anesthetized and the fur on their stomach shaved prior to exposure. Gum karaya patches with and without lavender essential oil were applied to the rat's stomach skin. Each rat was housed in an individual cage in order to prevent oral contamination of the essential oil by one rat eating another's patch. Blood samples (0.5 ml) were taken at 0, 12, 24, 36, 48 and 60 h from a nick at the tip of tail to determine contents of essential-oil components. Rats were restrained and the tail was gently massaged to facilitate blood collection. Blood samples were collected in vials containing 0.1 ml heparin (100 kU, Sigma). […] Urine samples were similarly analyzed by gas chromatography (GC).
Skin to which patches with or without lavender essential oil were adhered were sampled for extraction. […] When a control patch was adhered to the skin, no constituents of lavender essential oil were detected. […]

[4] = cited from earlier work

Highest concentration in blood ([1]; 30 min after rubbing the skin with almond-lavender essential oil mixture) [mg/L] | Highest concentration in blood ([1]; 36 h after a 7.5% lavender essential oil patch was adhered to the abdomen) [mg/L] | Time for which the constituent was evident in the blood ([1]; after rubbing the skin with the almond-essential oil mixture) [min] | concentration at 84 h ([2]; topical) [ng/mL] | concentration at 60 h ([3]; skin (ethanol extract of the application site), topical) [ng/mL] | Structure (SMILES) | Solubility in water [4] | Detection in blood ([1]; after rubbing with the almond-lavender oil mixture (massage)) | concentration at 84 h ([2]; in vivo) [ng/mL] | concentration at 60 h ([3]; in vivo, ethanol extract) [ng/mL]
0.32 | 0.48 | 80 | 12.7 | 62 | C=CC(C)(O)CCC=C(C)C (stereo not shown) [Linalool] | relatively high |  |  | 
 |  |  |  |  | C=CC(C)(CCC=C(C)C)OC(C)=O (stereo not shown) [Linalyl acetate] | relatively low | No linalyl acetate was detected | 9.03 | 241
